Data set [1] concerns the target T1, Relaxin receptor 1 (Mus musculus, UniProt Q6R6I7).
T1 sequence (Q6R6I7 whole entry): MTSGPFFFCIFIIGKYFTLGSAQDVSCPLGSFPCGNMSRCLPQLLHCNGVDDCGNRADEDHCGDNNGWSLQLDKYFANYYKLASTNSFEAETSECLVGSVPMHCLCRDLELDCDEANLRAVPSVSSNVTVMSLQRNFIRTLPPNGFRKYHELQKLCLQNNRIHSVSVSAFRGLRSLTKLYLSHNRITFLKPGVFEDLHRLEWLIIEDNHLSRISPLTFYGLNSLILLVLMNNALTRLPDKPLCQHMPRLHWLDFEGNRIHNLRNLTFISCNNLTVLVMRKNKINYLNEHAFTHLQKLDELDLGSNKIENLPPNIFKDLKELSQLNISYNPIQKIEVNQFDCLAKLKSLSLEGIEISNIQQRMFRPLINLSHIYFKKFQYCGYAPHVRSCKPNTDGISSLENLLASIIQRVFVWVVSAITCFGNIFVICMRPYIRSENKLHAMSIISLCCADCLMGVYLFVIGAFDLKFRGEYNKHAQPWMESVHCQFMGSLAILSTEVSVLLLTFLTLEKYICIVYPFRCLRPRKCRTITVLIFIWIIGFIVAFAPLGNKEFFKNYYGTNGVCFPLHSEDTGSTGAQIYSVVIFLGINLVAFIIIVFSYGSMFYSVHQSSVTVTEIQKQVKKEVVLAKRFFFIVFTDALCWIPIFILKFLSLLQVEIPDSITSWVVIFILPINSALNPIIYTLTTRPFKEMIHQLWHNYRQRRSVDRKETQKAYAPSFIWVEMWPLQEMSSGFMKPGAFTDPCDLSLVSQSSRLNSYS
The data set can be described thus: Agonist activity at mouse RXFP1 stably expressed in HEK293 cells assessed as intracellular cAMP accumulation incubated for 30 mins by HTRF assay. The data set is classed as functional, cell-based. On the technique in general: Cyclic AMP is a second messenger, typically raised through Gs and lowered through Gi signalling.

Data set [2] deals with T2, Relaxin receptor 1 (Rattus norvegicus, UniProt Q6R6I6).
T2 sequence (Q6R6I6 whole entry): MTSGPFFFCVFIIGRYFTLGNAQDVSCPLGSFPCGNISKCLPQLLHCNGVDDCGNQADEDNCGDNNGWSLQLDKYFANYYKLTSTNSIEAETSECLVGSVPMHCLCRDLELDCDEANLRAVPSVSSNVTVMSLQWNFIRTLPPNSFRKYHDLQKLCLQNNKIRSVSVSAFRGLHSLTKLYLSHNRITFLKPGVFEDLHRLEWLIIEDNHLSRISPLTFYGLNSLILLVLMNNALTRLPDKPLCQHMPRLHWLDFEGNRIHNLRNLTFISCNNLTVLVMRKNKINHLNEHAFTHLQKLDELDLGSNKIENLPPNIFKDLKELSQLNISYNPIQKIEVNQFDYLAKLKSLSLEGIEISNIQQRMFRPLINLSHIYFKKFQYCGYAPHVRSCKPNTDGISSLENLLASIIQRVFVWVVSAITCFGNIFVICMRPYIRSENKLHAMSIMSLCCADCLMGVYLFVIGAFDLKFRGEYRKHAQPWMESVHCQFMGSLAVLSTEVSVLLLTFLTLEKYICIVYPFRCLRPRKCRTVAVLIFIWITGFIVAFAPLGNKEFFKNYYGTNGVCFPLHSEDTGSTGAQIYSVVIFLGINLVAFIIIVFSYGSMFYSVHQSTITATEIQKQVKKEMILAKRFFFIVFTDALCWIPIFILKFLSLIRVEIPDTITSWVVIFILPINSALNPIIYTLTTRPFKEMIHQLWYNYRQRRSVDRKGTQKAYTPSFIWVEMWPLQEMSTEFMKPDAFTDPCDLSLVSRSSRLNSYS
Kind of data set: Agonist activity at rat RXFP1 stably expressed in HEK293 cells assessed as intracellular cAMP accumulation incubated for 30 mins by HTRF assay. The data set is classed as cell-based.

Data set [3] is described as follows: Microsomal stability in mouse liver microsomes assessed as half life. The data set is classed as ADME, Microsome. (In general: Liver microsomes are vesicles of endoplasmic reticulum, rich in cytochrome P450 enzymes.)
A short description of data set [4]: Clearance in Sprague-Dawley rat at 1 mg/kg, iv. It is filed as ADME, organism-based. The settings on record: in vivo.
Data set [5] in a line: Volume of distribution at steady state in Sprague-Dawley rat at 1 mg/kg, iv. It is filed as ADME, organism-based. The settings on record: in vivo, read-out: Vdss.
A further data set concerns the target Cytochrome P450 2D6 (Homo sapiens, UniProt P10635). The data set can be described thus: Inhibition of CYP2D6 (unknown origin).
The next data set deals with Cytochrome P450 3A4 (Homo sapiens, UniProt P08684). Kind of data set: Inhibition of CYP3A4 (unknown origin).
Chain of Cytochrome P450 3A4 (P08684 whole entry): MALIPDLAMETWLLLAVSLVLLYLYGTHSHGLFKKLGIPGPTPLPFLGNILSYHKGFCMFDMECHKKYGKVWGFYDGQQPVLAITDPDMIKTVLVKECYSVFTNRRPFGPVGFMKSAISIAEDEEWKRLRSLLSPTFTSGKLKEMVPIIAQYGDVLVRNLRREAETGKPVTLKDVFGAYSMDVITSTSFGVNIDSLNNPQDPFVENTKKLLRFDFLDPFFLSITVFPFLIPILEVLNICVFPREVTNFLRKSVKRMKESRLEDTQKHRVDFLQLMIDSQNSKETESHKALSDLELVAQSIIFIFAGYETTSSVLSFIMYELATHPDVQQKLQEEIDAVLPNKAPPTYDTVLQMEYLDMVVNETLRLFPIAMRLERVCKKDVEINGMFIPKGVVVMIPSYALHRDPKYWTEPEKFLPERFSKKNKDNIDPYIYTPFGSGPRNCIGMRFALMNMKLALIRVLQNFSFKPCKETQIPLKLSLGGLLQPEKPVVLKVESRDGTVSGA
Data set [6] concerns the target T3, Nuclear receptor subfamily 1 group I member 2 (Homo sapiens, UniProt O75469).
T3 sequence (O75469 whole entry): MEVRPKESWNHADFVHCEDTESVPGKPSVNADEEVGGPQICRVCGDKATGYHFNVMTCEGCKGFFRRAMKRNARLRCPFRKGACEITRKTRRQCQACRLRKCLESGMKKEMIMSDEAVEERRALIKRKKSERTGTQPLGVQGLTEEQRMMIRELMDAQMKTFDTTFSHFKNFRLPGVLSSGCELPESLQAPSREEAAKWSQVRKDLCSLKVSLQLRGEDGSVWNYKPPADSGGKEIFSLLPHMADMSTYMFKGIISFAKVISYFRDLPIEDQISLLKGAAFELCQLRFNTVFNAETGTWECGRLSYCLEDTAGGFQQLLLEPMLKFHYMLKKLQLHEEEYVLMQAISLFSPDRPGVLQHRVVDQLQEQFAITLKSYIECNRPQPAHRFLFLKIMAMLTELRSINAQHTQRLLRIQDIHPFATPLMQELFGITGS
The data set can be described thus: Activation of PXR (unknown origin).

The target in another data set is Nav1.5 (Homo sapiens, UniProt Q14524). Kind of data set: Inhibition of human Nav1.5 at 10 uM by patch clamp assay relative to control. On the technique in general: Patch clamp records ionic current or voltage across a cell membrane.
Chain of Nav1.5 (Q14524 whole entry): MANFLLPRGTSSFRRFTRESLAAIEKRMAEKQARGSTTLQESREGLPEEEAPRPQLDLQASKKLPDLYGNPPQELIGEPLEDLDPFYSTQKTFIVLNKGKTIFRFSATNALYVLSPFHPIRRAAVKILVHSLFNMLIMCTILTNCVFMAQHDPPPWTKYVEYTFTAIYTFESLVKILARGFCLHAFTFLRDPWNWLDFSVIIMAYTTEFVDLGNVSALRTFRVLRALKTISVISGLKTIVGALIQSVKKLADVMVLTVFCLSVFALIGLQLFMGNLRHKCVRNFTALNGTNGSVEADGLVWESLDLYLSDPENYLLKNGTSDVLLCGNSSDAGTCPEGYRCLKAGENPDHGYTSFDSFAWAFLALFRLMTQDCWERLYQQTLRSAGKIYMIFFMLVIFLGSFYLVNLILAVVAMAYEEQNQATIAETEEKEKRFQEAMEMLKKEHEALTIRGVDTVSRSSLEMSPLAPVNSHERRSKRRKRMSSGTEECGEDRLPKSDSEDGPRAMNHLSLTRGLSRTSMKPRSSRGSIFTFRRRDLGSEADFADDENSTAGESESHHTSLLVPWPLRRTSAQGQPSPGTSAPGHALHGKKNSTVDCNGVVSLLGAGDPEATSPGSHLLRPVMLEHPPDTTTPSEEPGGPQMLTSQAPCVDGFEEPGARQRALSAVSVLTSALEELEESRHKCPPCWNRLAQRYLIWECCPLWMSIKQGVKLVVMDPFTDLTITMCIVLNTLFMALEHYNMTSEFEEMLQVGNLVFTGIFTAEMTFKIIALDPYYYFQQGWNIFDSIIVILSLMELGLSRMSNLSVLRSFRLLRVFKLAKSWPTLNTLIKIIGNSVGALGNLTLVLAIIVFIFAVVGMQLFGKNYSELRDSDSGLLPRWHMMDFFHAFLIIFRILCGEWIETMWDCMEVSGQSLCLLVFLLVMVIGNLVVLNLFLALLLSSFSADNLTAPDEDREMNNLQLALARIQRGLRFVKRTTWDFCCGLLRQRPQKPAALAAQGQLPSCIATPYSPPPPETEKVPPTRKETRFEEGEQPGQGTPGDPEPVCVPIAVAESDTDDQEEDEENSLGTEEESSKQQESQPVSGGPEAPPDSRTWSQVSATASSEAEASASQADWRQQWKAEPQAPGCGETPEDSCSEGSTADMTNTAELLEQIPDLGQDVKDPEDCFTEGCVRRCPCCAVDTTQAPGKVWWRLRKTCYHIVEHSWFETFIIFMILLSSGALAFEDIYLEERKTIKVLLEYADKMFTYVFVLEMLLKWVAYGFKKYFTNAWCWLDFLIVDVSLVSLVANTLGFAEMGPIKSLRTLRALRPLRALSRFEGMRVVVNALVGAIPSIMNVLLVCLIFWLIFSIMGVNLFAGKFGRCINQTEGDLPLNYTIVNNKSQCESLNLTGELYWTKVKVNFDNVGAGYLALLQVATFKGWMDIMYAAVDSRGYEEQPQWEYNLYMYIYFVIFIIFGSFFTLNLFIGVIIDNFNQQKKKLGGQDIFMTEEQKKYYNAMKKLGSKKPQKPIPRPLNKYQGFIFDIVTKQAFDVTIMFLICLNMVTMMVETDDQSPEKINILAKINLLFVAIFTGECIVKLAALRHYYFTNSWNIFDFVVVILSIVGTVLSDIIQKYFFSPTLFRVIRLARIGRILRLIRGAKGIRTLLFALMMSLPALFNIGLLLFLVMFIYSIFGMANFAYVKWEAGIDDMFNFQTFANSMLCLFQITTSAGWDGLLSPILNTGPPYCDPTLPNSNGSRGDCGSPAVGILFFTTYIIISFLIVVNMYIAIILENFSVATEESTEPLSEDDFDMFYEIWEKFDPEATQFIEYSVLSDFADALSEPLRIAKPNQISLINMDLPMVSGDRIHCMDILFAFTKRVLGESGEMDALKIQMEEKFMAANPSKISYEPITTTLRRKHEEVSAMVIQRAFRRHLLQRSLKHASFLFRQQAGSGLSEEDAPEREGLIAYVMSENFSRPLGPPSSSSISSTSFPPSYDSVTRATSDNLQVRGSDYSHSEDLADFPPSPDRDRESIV
The target of the next data set is hERG (Homo sapiens, UniProt Q12809). Kind of data set: Inhibition of hERG (unknown origin) at 30 uM by patch clamp assay relative to control.
Chain of hERG (Q12809 whole entry): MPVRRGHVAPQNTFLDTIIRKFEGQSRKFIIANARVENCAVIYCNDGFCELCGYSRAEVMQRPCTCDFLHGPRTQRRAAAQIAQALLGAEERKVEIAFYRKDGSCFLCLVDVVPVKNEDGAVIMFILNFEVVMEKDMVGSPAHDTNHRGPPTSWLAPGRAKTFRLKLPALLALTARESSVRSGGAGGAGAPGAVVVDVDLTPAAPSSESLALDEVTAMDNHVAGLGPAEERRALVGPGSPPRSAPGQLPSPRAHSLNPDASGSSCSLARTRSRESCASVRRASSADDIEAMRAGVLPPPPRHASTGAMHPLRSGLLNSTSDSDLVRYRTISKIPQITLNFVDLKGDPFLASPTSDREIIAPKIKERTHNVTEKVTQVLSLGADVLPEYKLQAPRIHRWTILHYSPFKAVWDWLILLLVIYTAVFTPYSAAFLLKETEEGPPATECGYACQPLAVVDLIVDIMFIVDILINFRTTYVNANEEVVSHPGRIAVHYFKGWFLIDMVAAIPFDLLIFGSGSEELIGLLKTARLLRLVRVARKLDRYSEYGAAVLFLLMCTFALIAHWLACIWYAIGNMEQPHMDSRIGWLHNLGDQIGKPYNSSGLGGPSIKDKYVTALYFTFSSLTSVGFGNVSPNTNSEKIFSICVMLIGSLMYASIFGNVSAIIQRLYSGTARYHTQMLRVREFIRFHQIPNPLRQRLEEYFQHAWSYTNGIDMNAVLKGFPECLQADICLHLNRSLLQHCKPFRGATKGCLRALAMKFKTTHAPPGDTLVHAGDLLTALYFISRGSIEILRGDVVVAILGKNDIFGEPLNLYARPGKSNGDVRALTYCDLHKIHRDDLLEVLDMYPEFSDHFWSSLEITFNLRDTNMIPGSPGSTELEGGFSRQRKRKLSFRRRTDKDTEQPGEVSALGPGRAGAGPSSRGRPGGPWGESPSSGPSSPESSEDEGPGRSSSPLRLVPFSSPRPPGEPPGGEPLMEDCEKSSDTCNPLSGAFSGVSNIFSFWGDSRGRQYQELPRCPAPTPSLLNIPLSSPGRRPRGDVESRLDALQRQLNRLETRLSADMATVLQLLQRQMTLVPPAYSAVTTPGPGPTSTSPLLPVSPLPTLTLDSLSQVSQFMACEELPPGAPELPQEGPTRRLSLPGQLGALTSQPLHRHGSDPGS
Another data set has as its target L-type calcium channel (Homo sapiens, UniProt O60840+Q01668+Q13698+Q13936). Kind of data set: Inhibition of L-type calcium channel (unknown origin) at 10 uM by patch clamp assay relative to control.
The next data set deals with Rattus norvegicus. Kind of data set: Chronotropic effect in isoflurane-anesthetized male naive Sprague-Dawley rat model assessed as increase in heart rate at 5 mg/kg/min, iv measured after 60 mins. It is filed as functional. Conditions: 1 h.

What is called EC50 is the concentration at which the effect is half-maximal. Usually half-life stands for the time in which the quantity being followed falls by half. Usually clearance stands for a measure of how efficiently the substance is removed, as volume per time. The IC50 is the midpoint of a concentration-inhibition curve. The term inhibition denotes the relative decrease from the control value, in per cent.

A value given as a limit tells only on which side of the number the result lay.

Chain of Cytochrome P450 2D6 (P10635 whole entry): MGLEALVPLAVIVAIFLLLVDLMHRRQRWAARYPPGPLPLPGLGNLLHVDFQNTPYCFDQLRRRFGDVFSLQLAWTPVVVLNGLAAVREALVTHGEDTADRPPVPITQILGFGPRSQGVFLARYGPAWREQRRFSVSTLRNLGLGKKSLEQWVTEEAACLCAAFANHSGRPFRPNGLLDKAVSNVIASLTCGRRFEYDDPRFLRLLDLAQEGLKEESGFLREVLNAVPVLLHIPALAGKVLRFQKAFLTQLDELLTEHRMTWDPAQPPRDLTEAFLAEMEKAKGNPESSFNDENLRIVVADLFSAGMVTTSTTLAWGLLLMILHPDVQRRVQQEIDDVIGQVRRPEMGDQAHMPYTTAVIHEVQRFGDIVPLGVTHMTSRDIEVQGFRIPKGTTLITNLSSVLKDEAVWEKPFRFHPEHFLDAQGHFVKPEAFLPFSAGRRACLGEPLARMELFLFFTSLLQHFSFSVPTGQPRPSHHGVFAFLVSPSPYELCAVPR

As for `CNC(=O)OC(C(=O)O)c1ccc(F)c(-c2ccc(OC)c(C(=O)N[C@H]3[C@@H](C(=O)Nc4ccc(F)c(C(F)(F)F)c4)[C@H]4CC[C@@H]3/C4=C\C3CC3)c2)c1` (stereo in doubt; 39), the EC50 is 30 nM at Relaxin receptor 1 [1], 45 nM at Relaxin receptor 1 [2] and > 50000 nM in data set [6]. The half-life in data set [3] was > 2 h. Moreover, the clearance in [4] was determined as 2.5 mL/min/kg. Also, the Vd in data set [5] stood at 0.09 L/kg. The IC50 on Cytochrome P450 2D6 and on Cytochrome P450 3A4 was > 20000 nM in each case. Further, the values for the inhibition at 10 µM against Nav1.5 and at L-type calcium channel were 59% and 33%, respectively. Further, the inhibition at 30 µM at hERG was found to be 7%. Besides, in the data set with Rattus norvegicus, the Activity came to 25%.

Values taken from ChEMBL document CHEMBL6182920, “The Discovery of C7-Substituted Norbornyl Bisamides as RXFP1 Small Molecule Agonists” (J Med Chem, 2025).
